Measurements from patent US11633502B2, “Bone marrow-, reticuloendothelial system-, and/or lymph node-targeted radiolabeled liposomes and methods of their diagnostic and therapeutic use” (Memorial Sloan Kettering Cancer Center, priority 2016, dated 2023).

Test: Blood cell counts of GT3 liposome treated mice after ionizing radiation
Assay type: in vivo, C57/B6 mice
Details: after exposure to 2 or 4 Gy
Method: FIGS. 28A and 28B show blood cell counts of GT3 liposome treated mice after ionization radiation. White blood cell (WBC) (FIG. 28A) and lymph (FIG. 28B) counts are shown for mice treated with 2 Gy+GT3 containing liposomes, 2 Gy, 4 Gy+GT3 containing liposomes, and 4 Gy.
C57/B6 mice were treated with GT3 containing BMT liposomes with 10 mg/kg GT3 at 24 h prior to 2 and 4 Gy. Blood cells were counted at 0, 1, 4, 6, 13 days after irradiation. […] Lymphocyte recovery is the most significant. […] This effect was not seen when GT3 was not targeted to the bone marrow.

## CC(C)=CCC/C(C)=C/CC/C(C)=C/CC[C@]1(C)CCc2cc(O)c(C)c(C)c2O1 [GT3]
  recovery of lymphocyte and neutrophils: not seen
